# Assay results taken from patent US20180099931A1 (AbbVie S.à.r.l., priority 2016, published 2018).
# Like-named read-outs stand apart in the source and are kept apart here.
# Biological target: T1, F508delCFTR (Homo sapiens, UniProt P13569, DEL508-508)
# T1 construct: expressed in transfected cells; host or cells: CFBE41o- human lung-derived epithelial cells (CFBE4lo-F508delCFTR-HRP), doxycycline-inducible
# Experiment: Cell Surface Expression-Horse Radish Peroxidase (CSE-HRP) Assay;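 as to Maximum % activity (with co-corrector): co-corrector and positive control are both the same reference corrector at 2 µM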;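 as to Maximum % activity (without co-corrector): percent of the 2 µM on-plate positive control corrector response above DMSO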
# Assay type: cell-based
# Conditions: for Emax / Maximum % activity (with co-corrector): maximum at any tested concentration, normalized to on-plate positive control; for Emax: read-out: Maximum % activity (without co-corrector)
# [1] = test compound without co-corrector
# [2] = test compound without co-corrector, read-out: EC50 (without co-corrector)
# [3] = with co-corrector (2 μM of 3-[(2R,4R)-4-({[1-(2,2-difluoro-1,3-benzodioxol-5-yl)cyclopropyl]carbonyl}amino)-7-methoxy-3,4-dihydro-2H-chromen-2-yl]benzoic acid), read-out: EC50 (with co-corrector)
# [4] = with co-corrector (2 μM of 3-[(2R,4R)-4-({[1-(2,2-difluoro-1,3-benzodioxol-5-yl)cyclopropyl]carbonyl}amino)-7-methoxy-3,4-dihydro-2H-chromen-2-yl]benzoic acid)
# [5] = CSE-HRP, test compound without co-corrector, read-out: EC50 (without co-corrector)
# [6] = CSE-HRP, with co-corrector (2 μM of 3-[(2R,4R)-4-({[1-(2,2-difluoro-1,3-benzodioxol-5-yl)cyclopropyl]carbonyl}amino)-7-methoxy-3,4-dihydro-2H-chromen-2-yl]benzoic acid), read-out: EC50 (with co-corrector)
# [7] = CSE-HRP, with co-corrector (2 μM)
# T1 sequence (P13569 with tags, fused parts or gaps DEL508-508): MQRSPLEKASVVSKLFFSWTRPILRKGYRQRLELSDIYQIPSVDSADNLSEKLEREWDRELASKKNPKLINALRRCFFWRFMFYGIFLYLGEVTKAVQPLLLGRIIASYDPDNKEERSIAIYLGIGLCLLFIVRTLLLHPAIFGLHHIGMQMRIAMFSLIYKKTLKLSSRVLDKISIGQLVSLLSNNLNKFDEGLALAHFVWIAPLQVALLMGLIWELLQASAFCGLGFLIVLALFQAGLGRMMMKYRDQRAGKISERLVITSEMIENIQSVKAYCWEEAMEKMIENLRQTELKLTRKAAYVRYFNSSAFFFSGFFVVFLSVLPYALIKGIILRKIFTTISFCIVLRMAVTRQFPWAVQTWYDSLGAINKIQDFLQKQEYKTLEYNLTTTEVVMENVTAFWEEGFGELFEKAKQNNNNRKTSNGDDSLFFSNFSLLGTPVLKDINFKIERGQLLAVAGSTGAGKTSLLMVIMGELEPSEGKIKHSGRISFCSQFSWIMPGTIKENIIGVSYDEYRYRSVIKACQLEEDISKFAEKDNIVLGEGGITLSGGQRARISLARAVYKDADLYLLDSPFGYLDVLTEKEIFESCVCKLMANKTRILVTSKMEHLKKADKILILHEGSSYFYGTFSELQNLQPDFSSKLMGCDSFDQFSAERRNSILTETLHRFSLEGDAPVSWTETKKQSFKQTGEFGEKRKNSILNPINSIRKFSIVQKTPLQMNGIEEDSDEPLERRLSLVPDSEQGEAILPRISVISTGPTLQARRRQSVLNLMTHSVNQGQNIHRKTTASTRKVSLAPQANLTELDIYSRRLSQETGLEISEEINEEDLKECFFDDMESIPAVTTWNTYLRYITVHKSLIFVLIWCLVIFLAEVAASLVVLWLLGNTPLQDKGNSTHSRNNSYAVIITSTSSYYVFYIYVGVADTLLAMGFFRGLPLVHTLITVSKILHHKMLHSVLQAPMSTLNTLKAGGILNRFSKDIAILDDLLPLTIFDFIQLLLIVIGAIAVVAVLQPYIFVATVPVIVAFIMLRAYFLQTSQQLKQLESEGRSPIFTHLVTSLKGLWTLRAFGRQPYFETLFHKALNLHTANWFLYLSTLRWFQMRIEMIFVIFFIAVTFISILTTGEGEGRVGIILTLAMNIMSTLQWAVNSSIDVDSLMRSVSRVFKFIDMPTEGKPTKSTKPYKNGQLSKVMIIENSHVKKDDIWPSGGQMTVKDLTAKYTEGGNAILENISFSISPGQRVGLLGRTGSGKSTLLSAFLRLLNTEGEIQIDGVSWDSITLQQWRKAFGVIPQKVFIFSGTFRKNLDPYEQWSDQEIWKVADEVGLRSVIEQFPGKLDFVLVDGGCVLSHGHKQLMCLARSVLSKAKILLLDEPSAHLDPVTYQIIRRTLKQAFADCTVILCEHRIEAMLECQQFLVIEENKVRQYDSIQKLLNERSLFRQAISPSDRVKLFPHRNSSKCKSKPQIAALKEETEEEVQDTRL
Compound,Emax [1],EC50 [2],EC50 [3],Maximum % activity (with co-corrector) (with co-corrector (2 μM)),Maximum % activity (with co-corrector) [4],EC50 [5],EC50 [6],Maximum % activity (with co-corrector) [7],"Emax (CSE-HRP, without co-corrector)",Emax (without co-corrector)
COc1ccc(C(C)(C)C)cc1CN[C@@H]1[C@@H](C(C)(C)C)[C@H](C(=O)O)N(C(=O)OC(C)C)[C@@H]1c1ccccc1 (racemic) [II-43],–,–,–,–,–,1 to 10 µM,1 to 10 µM,+++ (≥350),> 200%,–
COc1cccc([C@@H]2[C@H](NCc3cc(Cl)ccc3OC)[C@@H](C(C)(C)C)[C@H](C(=O)O)N2C(=O)C2CCCCC2)n1 (racemic) [II-19],–,–,–,–,–,1 to 10 µM,1 to 10 µM,+++ (≥350),100 to 200%,–
COc1ccc(C(C)(C)C)cc1CN[C@H]1[C@H](C(C)(C)C)[C@@H](C(=O)O)N(C(=O)OC2CCCC2)[C@H]1c1ccccc1 [Example I-119],–,1 to 10 µM,< 1 µM,+++ (≥350),–,–,–,–,–,> 200%
"COc1ccc(C2(C)CCC2)cc1CN[C@H]1[C@H](C(C)(C)C)[C@@H](C(=O)O)N(C(=O)OC(C)C)[C@H]1c1cccnc1N(C)C [Example 80, (2S,3S,4S,5S)-3-tert-butyl-5-[2-(dimethylamino)pyridin-3-yl]-4-({[2-methoxy-5-(1-methylcyclobutyl)phenyl]methyl}amino)-1-{[(propan-2-yl)oxy]carbonyl}pyrrolidine-2-carboxylic acid]",–,1 to 10 µM,1 to 10 µM,+++ (≥350),–,–,–,–,–,> 200%
COc1ccc(C(C)(C)C)cc1CN[C@H]1[C@H](C(C)(C)C)[C@@H](C(=O)O)N(C(=O)[C@H]2[C@H](C(F)(F)F)[C@H]3CC[C@@H]2O3)[C@H]1c1ccccc1OC(F)F (relative stereo) [Example I-223],–,1 to 10 µM,< 1 µM,+++ (≥350),–,–,–,–,–,100 to 200%
COc1ccc(C(C)(C)C)cc1CN[C@H]1[C@H](C(C)(C)C)[C@@H](C(=O)O)N(C(=O)c2cc(Cl)c(=O)n(C(C)C)c2)[C@H]1c1ccccc1 [II-223],–,–,–,–,–,1 to 10 µM,1 to 10 µM,+++ (≥350),< 100%,–
COc1cc2c(cc1CN[C@H]1[C@H](C(C)(C)C)[C@@H](C(=O)O)N(C(=O)C3CCCCC3)[C@H]1c1ccccc1)CCC2 [Example I-49],–,1 to 10 µM,< 1 µM,+++ (≥350),–,–,–,–,–,> 200%
Cc1ccc(C#N)c(N[C@H]2[C@H](C(C)(C)C)[C@@H](C(=O)O)N(C(=O)C3CCCCC3)[C@H]2c2ccccc2)n1 [II-146],–,–,–,–,–,1 to 10 µM,1 to 10 µM,+++ (≥350),< 100%,–
"COc1ccc(C(C)(C)C)cc1CN[C@H]1[C@H](C(C)(C)C)[C@@H](C(=O)O)N(C(=O)C2CCC2)[C@H]1c1cccnc1N1CCC1 [Example 102, (2S,3S,4S,5S)-5-[2-(azetidin-1-yl)pyridin-3-yl]-3-tert-butyl-4-{[(5-tert-butyl-2-methoxyphenyl)methyl]amino}-1-(cyclobutanecarbonyl)pyrrolidine-2-carboxylic acid]",–,1 to 10 µM,1 to 10 µM,+++ (≥350),–,–,–,–,–,100 to 200%
COc1ccc(C(C)(C)C)cc1CN[C@H]1[C@H](C(C)(C)C)[C@@H](C(=O)O)N(C(=O)Cc2ccc(C)cc2)[C@H]1c1ccccc1 [II-204],–,–,–,–,–,< 1 µM,< 1 µM,+++ (≥350),100 to 200%,–
COc1ccc(C(C)(C)C)cc1CN[C@H]1[C@H](C(C)(C)C)[C@@H](C(=O)O)N(C(=O)CC23CC(C2)C3)[C@H]1c1ccccc1 [II-177],–,–,–,–,–,1 to 10 µM,< 1 µM,+++ (≥350),> 200%,–

# Other lines, results leading:
Emax [1],EC50 [2],EC50 [3],Maximum % activity (with co-corrector) (with co-corrector (2 μM)),Maximum % activity (with co-corrector) [4],EC50 [5],EC50 [6],Maximum % activity (with co-corrector) [7],"Emax (CSE-HRP, without co-corrector)",Emax (without co-corrector),Compound
100 to 200%,< 1 µM,< 1 µM,+++ (≥350),–,–,–,–,–,–,COc1ccc(C(F)(F)F)cc1CN[C@H]1[C@H](C(C)(C)C)[C@@H](C(=O)O)N(C(=O)C2CC(C)CC(C)C2)[C@H]1c1ccccc1 (stereo partly drawn) [III-196]
< 100%,> 10 µM,1 to 10 µM,–,++ (≥150 and <350),–,–,–,–,–,CC(C)(C)[C@@H]1[C@@H](NCc2cc(C(F)(F)F)ccc2OCCO)[C@@H](c2ccccc2)N(C(=O)C2CCCCC2)[C@H]1C(=O)O (racemic) [III-66]
100 to 200%,1 to 10 µM,< 1 µM,–,+++ (≥350),–,–,–,–,–,COc1ccc(C(C)(C)C)cc1CN[C@H]1[C@H](C(C)(C)C)[C@@H](C(=O)O)N(C(=O)c2cnn(C(C)(C)C)c2C#N)[C@H]1c1ccccc1 [II-355]
> 200%,1 to 10 µM,1 to 10 µM,+++ (≥350),–,–,–,–,–,–,COc1ccc(C2(C)CCC2)cc1CN[C@H]1[C@H](C(C)(C)C)[C@@H](C(=O)O)N(C(=O)[C@@H]2CCCCO2)[C@H]1c1cccnc1OC [III-233]
> 200%,< 1 µM,< 1 µM,+++ (≥350),–,–,–,–,–,–,COc1ccc(C(C)(C)C)cc1CN[C@H]1[C@H](C(C)(C)C)[C@@H](C(=O)O)N(C(=O)C2CCCC(C)C2)[C@H]1c1ccccc1 (stereo partly drawn) [III-175]
< 100%,> 10 µM,1 to 10 µM,++ (≥150 and <350),–,–,–,–,–,–,Cc1cc(C(F)(F)F)cc(N[C@@H]2[C@@H](C(C)(C)C)[C@H](C(=O)O)N(C(=O)C3CCC(F)(F)CC3)[C@@H]2c2ccccc2)n1 (racemic) [III-104]
< 100%,< 1 µM,< 1 µM,–,+++ (≥350),–,–,–,–,–,COc1ccc(C(C)(C)C)cc1CN[C@H]1[C@H](C(C)(C)C)[C@@H](C(=O)O)N(C(=O)C2(c3ccccc3)COc3ccccc32)[C@H]1c1ccccc1 (stereo partly drawn) [II-370]
< 100%,> 10 µM,1 to 10 µM,++ (≥150 and <350),–,–,–,–,–,–,CC(C)(O)c1cc(Cl)nc(N[C@H]2[C@H](C(C)(C)C)[C@@H](C(=O)O)N(C(=O)C3CCCCC3)[C@H]2c2ccccc2)c1 [III-147]
> 200%,1 to 10 µM,1 to 10 µM,–,+++ (≥350),–,–,–,–,–,COc1ncc(C(F)(F)F)cc1CN[C@H]1[C@H](C(C)(C)C)[C@@H](C(=O)O)N(C(=O)OC(C)C)[C@H]1c1ccccc1C [II-580]
< 100%,1 to 10 µM,1 to 10 µM,–,+++ (≥350),–,–,–,–,–,COc1ccc(C(C)(C)C)cc1CN[C@H]1[C@H](C(C)(C)C)[C@@H](C(=O)O)N(C(=O)[C@@H]2C[C@H]3CC[C@@H]2O3)[C@H]1c1cccnc1OC (relative stereo) [II-522]
< 100%,1 to 10 µM,1 to 10 µM,++ (≥150 and <350),–,–,–,–,–,–,COc1ccc(C(C)(C)C)cc1CN[C@H]1[C@H](C(C)(C)C)[C@@H](C(=O)O)N(C(=O)C2CCc3cc(F)ccc3O2)[C@H]1c1cccnc1N(C)C (stereo partly drawn) [III-210]
> 200%,1 to 10 µM,< 1 µM,–,+++ (≥350),–,–,–,–,–,COc1ccc(C(C)(C)C)cc1CN[C@H]1[C@H](C(C)(C)C)[C@@H](C(=O)O)N(C(=O)C(C)Oc2cccc(Cl)c2)[C@H]1c1ccccc1 (stereo partly drawn) [II-330]
> 200%,1 to 10 µM,1 to 10 µM,–,+++ (≥350),–,–,–,–,–,CCCOC(=O)N1[C@H](C(=O)O)[C@@H](C(C)(C)C)[C@H](NCc2cc(C(C)(C)C)ccc2OC)[C@@H]1c1ccccc1 [II-390]
